In patent US11975009B2, “Use of zinc porphyrin as an antimicrobial” (ZNABLE LLC, priority 2022, dated 2024):

Columns and labels:
[1] = test system: PAO1 and PA14 strains of PsA; assay: Time kill curves, planktonic cells; format: cell-based, Pseudomonas aeruginosa
Method: FIGS. 13A-13B show the time kill curve of ZnPor (II) (25 μg/mL) against PAO1 (FIG. 12A) and PA14 (FIG. 12B) strains of PsA. Overnight cultures of strain PAO1 and PA14 grown in MSG media were diluted in fresh MSG to 10^6 cells/mL with fresh medium. ZnPor was added (25 μg/ml) and cultures were grown aerobically, with shaking, for 6 hours. Viable cell count (CFU per ml) was determined by serially diluting bacterial cells at the indicated time points, onto LB agar. Data from 3 separate experiments represents total mean±standard error, total (n=9) and (n=8) respectively.

PsA PA14 biofilms = assay: PA14 biofilm on polyethylene coupons, LIVE/DEAD stain, CLSM; format: cell-based, Pseudomonas aeruginosa; settings: ZnPor 25 μg/mL 2 h, then PEV2 (MOI 10:1) 4 h
Method: Biofilms were grown on polyethylene coupons in CDC approved bioreactors in MSG media for […]. Overnight media was replaced with PBS and biofilms were treated as follows: (FIG. 19A) Control (no additions), (FIG. 19B) ZnPor (25 μg/mL) for 2 hours, (FIG. 19C) Phage PEV2 (MOI of 10:1) for 4 hours, or (FIG. 19D) ZnPor (25 μg/mL) for 2 hours followed by the addition of Phage PEV2 (MOI of 10:1) for 4 hours. Coupons were gently washed in distilled water and were treated with LIVE/DEAD™ stain. All coupons were imaged using confocal laser scanning […] microscopy (CLSM) at 60×.

[2] = test system: Human airway epithelial (BEAS2B, 16HBE, CFBE) and alveolar epithelial (A549) cells; assay: LDH in supernatant of pulmonary cell lines; format: cell-based
Method: Representative of one experiment.
Human airway epithelial (BEAS2B, 16HBE, CFBE) and alveolar epithelial (A549) cells were cultured, plated on 12-well plates, serum starved overnight, and treated with increasing doses of ZnPor. Cell culture supernatants were collected after 48 h of treatment, and supernatants were then assayed for lactate dehydrogenase (LDH), a general marker of cell death released into the supernatant after cell lysis.

A549/U937 = format: cell-based
Method: FIGS. 22A-22B show a lung co-culture (A549/U937) model after 24 hour exposure to ZnPor displaying no toxicity (FIG. 22A) and U937 stained and imaged after 24 hours of dark exposure to 50 μM ZnPor (FIG. 22B).

[3] = test system: Coronavirus isolated from a cold (ATCC); assay: Anti-viral activity against a Coronavirus; format: cell-based; settings: without light activation
From the text: ZnPor (II) can interact with many macromolecules and may bind to important components of a virus, rendering it unable to infect cells. […] This is due to the high levels of ROSs (Reactive Oxygen Species, e.g., superoxide) produced by activation of the porphyrin and which destroy a wide range of macromolecules (proteins, lipids etc.). […] ZnPor can bind to proteins, which may have accounted for how ZnPor (II) acted, in that it bound to the viral proteins such as the spike protein of Coronaviruses. If the Spike proteins bound to ZnPor (II) then the virus couldn't attach to the host cell binding receptor for the spike proteins. There are relatively few antiviral agents. While there are a number of porphyrins that can inactivate viruses using light activation, ZnPor (II) porphyrin has antiviral activity without light activation.

[4] = test system: S. aureus MSSA and MRSA strains (GP); assay: Killing activity against a range of bacteria; format: cell-based, Staphylococcus aureus
Listeria monocytogenes = assay: Killing activity against a range of bacteria; format: cell-based
[5] = test system: Mycobacterium tuberculosis; assay: Killing of acid fast bacterium; format: cell-based
From the text: ZnPor (II) is the only porphyrin that kills Gram-positive and Gram-negative bacteria without photoactivation. […] Additionally, ZnPor (II) inactivates the bacteriophage PEV2, a well-studied bacteriophage of Pseudomonas aeruginosa. PEV2 is currently being used in phage therapy in Europe. […] While ZnPor (II) can inactivate phage, at lower concentrations it can act synergistically with bacteriophage PEV2 or the purified genome of PEV2 in remediation of biofilms of PsA. This is referred to as PAS Phage Antibiotic Synergy (PAS) and is of great interest and intense study; as a means to overcome several known limitations of phage-only “Phage Therapy”.

[6] = format: physicochemical
From the text: As used herein, “water soluble” refers to a property wherein a material is miscible in water, or in other words, is a capable of forming a homogenous solution with water at ambient conditions.

PsA = assay: Activity of extant antibiotics together with ZnPor (II)
ex-vivo grown lung cells = assay: Toxicity to ex-vivo grown lung cells versus effective concentration

In the case of “meso-5,10,15-tris(N-methyl-4-pyridyl)-20-(pentafluorophenyl)porphyrinatozinc(II), tris-p-toluene sulfonate [ZnPor]”, the bactericidal concentration ([1]; PsA) is reported as 25 µg/mL, the “MBC:MIC ratio” value ([1]; derived from kill curves) is reported as 2 and the “effect on PA14 cells towards PEV2 phage” value (PsA PA14 biofilms) is reported as “sensitive to PEV2 phage”. For the same substance, the LDH dose response ([2]; 16HBE, CFBE, and A549 cells) was “dose response of decreased LDH”, the “LDH in cell culture supernatant vs treatment without ZnPor” value ([2]; 48 h of treatment, increasing doses) was “significantly less LDH” and the toxicity (A549/U937) was “no toxicity”. The viral infection [3] was “prevented viral infection”, the killing [4] was “effective at killing” and the killing (Listeria monocytogenes) was “effective at killing”. The killing [5] was “effective at killing”, the water solubility [6] was “water soluble” and the “effect on extant antibiotics ineffective against bacterial biofilms, e.g., Tobramycin” value (PsA) was “enables activity”. For the same substance, the “effective concentration, fold lower than that causing any toxicity” value (ex-vivo grown lung cells) was “up to 100 ×”.
